The subject of the test is human umbilical vein endothelial cells (HUVEC) expressing GFP and normal human dermal fibroblasts (NHDF). Put plainly: Angiogenesis assay (vascular tube formation, HUVEC/NHDF co-culture). Type of test: cell-based. The note with it: VEGF 4 ng/ml; 100 μM suramin positive control. On the procedure:
In the vascular tube formation assay, a co-culture system of human umbilical vein endothelial cells (HUVEC) expressing GFP and normal human dermal fibroblasts (NHDF) was used. For cell seeding on day 0, one cryogenic vial of NHDF cells was thawed and resuspended in 12 ml of complete seeding medium. Then, 100 μl of this solution was added per well of a 96-well plate. The cells were incubated at room temperature for 1 hour. Then, 1 cryogenic vial of HUVECs was thawed and resuspended in 12 ml of complete seeding medium. HUVEC (100 μL per well) were seeded into the same plate as NHDFs. The cells were incubated at room temperature for another hour. The plate was then examined in an IncuCyte ZOOM and scanned using the “FOIL” scan type. After 24 hours, the culture medium was replaced with 150 μl of growth medium.
Forty-eight hours after seeding, the cells were treated with VEGF at 4 ng/ml and the test compounds at eight concentrations.
Serial dilutions of the compounds were prepared using assay media containing VEGF up to the final concentrations in FIG. 3. Then, 150 μl of medium containing the vNARs were added. In untreated wells, media without VEGF were added. For wells without compound, media with VEGF was added. […]
The formation of vessel tubes by fluorescently-labeled HUVECs was measured using live-cell imaging, and the effects of the vNARs on this process were assessed.

The source of these data is US11155612B2, “vNAR antibody which binds VEGF for use in dogs or cats” (CENTRO DE INVESTIGACIÓN CIENTÍFICA Y DE EDUCACIÓN SUPERIOR …, priority 2017, dated 2021).

For the compound `Cc1ccc(C(=O)Nc2ccc(S(=O)(=O)O)c3cc(S(=O)(=O)O)cc(S(=O)(=O)O)c23)cc1NC(=O)c1cccc(NC(=O)Nc2cccc(C(=O)Nc3cc(C(=O)Nc4ccc(S(=O)(=O)O)c5cc(S(=O)(=O)O)cc(S(=O)(=O)O)c45)ccc3C)c2)c1` [suramin, reference compound], the “inhibition of VEGF-increased tube branching” value was “inhibited”.
